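Step 1: Grow cells in 96-well plates. Step 2: Expose to compound for 48 hours at 5 concentrations. Step 3: Interpolate endpoints linearly; if unreached, use highest concentration. GI50 marks 50% less growth. TGI: concentration producing complete growth inhibition.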
What was measured:
Experiment in all cases: NCI anticancer screen, dose series, 48 h
U251 CNS = system: U251 CNS
KM12 colon = system: KM12 colon
T-47D breast = system: T-47D breast
A498 renal = system: A498 renal
COLO 205 colon = system: COLO 205 colon
SK-MEL-28 melanoma = system: SK-MEL-28 melanoma
DU-145 prostate = system: DU-145 prostate
SF-268 CNS = system: SF-268 CNS
LOX IMVI melanoma = system: LOX IMVI melanoma
UACC-257 melanoma = system: UACC-257 melanoma
HCC-2998 colon = system: HCC-2998 colon
HOP-92 NSCLC = system: HOP-92 NSCLC
IGROV1 ovarian = system: IGROV1 ovarian
NCI-H226 lung = system: NCI-H226 lung
SR leukemia = system: SR leukemia
UACC-62 melanoma = system: UACC-62 melanoma
NCI/ADR-RES ovarian = system: NCI/ADR-RES ovarian
NCI-H23 lung = system: NCI-H23 lung
SF-539 CNS = system: SF-539 CNS
MALME-3M melanoma = system: MALME-3M melanoma
OVCAR-8 ovarian = system: OVCAR-8 ovarian
OVCAR-3 ovarian = system: OVCAR-3 ovarian
K-562 leukemia = system: K-562 leukemia
MCF7 breast = system: MCF7 breast
A549 NSCLC = system: A549 NSCLC
MOLT-4 leukemia = system: MOLT-4 leukemia
SW-620 colon = system: SW-620 colon
SNB-19 CNS = system: SNB-19 CNS
HL-60(TB) leukemia = system: HL-60(TB) leukemia
MDA-MB-231 breast = system: MDA-MB-231 breast
NCI-H460 lung = system: NCI-H460 lung
ACHN renal = system: ACHN renal
BT-549 breast = system: BT-549 breast
M14 melanoma = system: M14 melanoma
RXF 393 renal = system: RXF 393 renal
OVCAR-5 ovarian = system: OVCAR-5 ovarian
HCT-116 colon = system: HCT-116 colon
NCI-H522 lung = system: NCI-H522 lung
SK-OV-3 ovarian = system: SK-OV-3 ovarian
SK-MEL-5 melanoma = system: SK-MEL-5 melanoma
SF-295 CNS = system: SF-295 CNS
786-0 renal = system: 786-0 renal
SNB-75 CNS = system: SNB-75 CNS
CAKI-1 renal = system: CAKI-1 renal
HS 578T breast = system: HS 578T breast
CCRF-CEM leukemia = system: CCRF-CEM leukemia
UO-31 renal = system: UO-31 renal
SN12C renal = system: SN12C renal
HOP-62 NSCLC = system: HOP-62 NSCLC
OVCAR-4 ovarian = system: OVCAR-4 ovarian
TK-10 renal = system: TK-10 renal
RPMI-8226 leukemia = system: RPMI-8226 leukemia
HCT-15 colon = system: HCT-15 colon
MDA-MB-435 = system: MDA-MB-435

With `O=[N+]([O-])c1ccc(CI)cc1` as the compound, how does the GI50 (U251 CNS) read?
The GI50 was 2910 nM.

What about the TGI (U251 CNS) of the same compound?
The TGI was 10.4 µM.

What about the GI50 (KM12 colon) of the same compound?
Its GI50 is 3.52 µM.

And the TGI (KM12 colon)?
The TGI was 12 µM.

What about the GI50 (T-47D breast) of the same compound?
The GI50 was 2210 nM.

What about the TGI (T-47D breast) of the same compound?
The TGI was 5.17 µM.

And the GI50 (A498 renal)?
The GI50 was 2290 nM.

And the TGI (A498 renal)?
The TGI was 9.56 µM.

And the GI50 (COLO 205 colon)?
Its GI50 is 2000 nM.

And the TGI (COLO 205 colon)?
The TGI was 3.76 µM.

And the GI50 (SK-MEL-28 melanoma)?
Its GI50 is 5.15 µM.

What about the TGI (SK-MEL-28 melanoma) of the same compound?
Its TGI is 18.2 µM.

What about the GI50 (DU-145 prostate) of the same compound?
Its GI50 is 2780 nM.

And the TGI (DU-145 prostate)?
Its TGI is 7.08 µM.

And the GI50 (SF-268 CNS)?
The GI50 was 4.02 µM.

And the TGI (SF-268 CNS)?
Its TGI is 15.2 µM.

And the GI50 (LOX IMVI melanoma)?
Its GI50 is 1300 nM.

And the TGI (LOX IMVI melanoma)?
The TGI was 2900 nM.

And the GI50 (UACC-257 melanoma)?
The GI50 was 3.47 µM.

And the TGI (UACC-257 melanoma)?
Its TGI is 15.5 µM.

And the GI50 (HCC-2998 colon)?
The GI50 was 3.43 µM.

What about the TGI (HCC-2998 colon) of the same compound?
The TGI was 11.8 µM.

What about the GI50 (HOP-92 NSCLC) of the same compound?
Its GI50 is 4.25 µM.

And the TGI (HOP-92 NSCLC)?
Its TGI is 16.5 µM.

What about the GI50 (IGROV1 ovarian) of the same compound?
The GI50 was 4.31 µM.

What about the TGI (IGROV1 ovarian) of the same compound?
The TGI was 14.8 µM.

And the GI50 (NCI-H226 lung)?
Its GI50 is 5.66 µM.

And the TGI (NCI-H226 lung)?
Its TGI is 23.5 µM.

And the GI50 (SR leukemia)?
Its GI50 is 2240 nM.

And the TGI (SR leukemia)?
The TGI was 10.3 µM.

What about the GI50 (UACC-62 melanoma) of the same compound?
Its GI50 is 2940 nM.

And the TGI (UACC-62 melanoma)?
The TGI was 12.2 µM.

And the GI50 (NCI/ADR-RES ovarian)?
Its GI50 is 3.15 µM.

What about the TGI (NCI/ADR-RES ovarian) of the same compound?
Its TGI is 11.2 µM.

What about the GI50 (NCI-H23 lung) of the same compound?
Its GI50 is 3.32 µM.

What about the TGI (NCI-H23 lung) of the same compound?
Its TGI is 12.4 µM.

What about the GI50 (SF-539 CNS) of the same compound?
Its GI50 is 2660 nM.

And the TGI (SF-539 CNS)?
Its TGI is 8.19 µM.

And the GI50 (MALME-3M melanoma)?
Its GI50 is 2150 nM.

What about the TGI (MALME-3M melanoma) of the same compound?
Its TGI is 4.63 µM.

What about the GI50 (OVCAR-8 ovarian) of the same compound?
Its GI50 is 3.71 µM.

And the TGI (OVCAR-8 ovarian)?
Its TGI is 13.3 µM.

What about the GI50 (OVCAR-3 ovarian) of the same compound?
Its GI50 is 2400 nM.

What about the TGI (OVCAR-3 ovarian) of the same compound?
Its TGI is 5.41 µM.

And the GI50 (K-562 leukemia)?
The GI50 was 404 nM.

What about the TGI (K-562 leukemia) of the same compound?
Its TGI is 2950 nM.

And the GI50 (MCF7 breast)?
Its GI50 is 3.08 µM.

What about the TGI (MCF7 breast) of the same compound?
The TGI was 17.2 µM.

What about the GI50 (A549 NSCLC) of the same compound?
The GI50 was 3.68 µM.

What about the TGI (A549 NSCLC) of the same compound?
Its TGI is 14.5 µM.

And the GI50 (MOLT-4 leukemia)?
The GI50 was 1320 nM.

And the TGI (MOLT-4 leukemia)?
The TGI was 7.21 µM.

What about the GI50 (SW-620 colon) of the same compound?
The GI50 was 803 nM.

What about the TGI (SW-620 colon) of the same compound?
Its TGI is 3.22 µM.

What about the GI50 (SNB-19 CNS) of the same compound?
The GI50 was 3.03 µM.

What about the TGI (SNB-19 CNS) of the same compound?
Its TGI is 14.4 µM.

And the GI50 (HL-60(TB) leukemia)?
The GI50 was 2240 nM.

What about the TGI (HL-60(TB) leukemia) of the same compound?
Its TGI is 5.22 µM.

And the GI50 (MDA-MB-231 breast)?
Its GI50 is 1230 nM.

What about the TGI (MDA-MB-231 breast) of the same compound?
Its TGI is 4.08 µM.

What about the GI50 (NCI-H460 lung) of the same compound?
The GI50 was 3.2 µM.

And the TGI (NCI-H460 lung)?
Its TGI is 10.5 µM.

What about the GI50 (ACHN renal) of the same compound?
Its GI50 is 1960 nM.

And the TGI (ACHN renal)?
The TGI was 4.12 µM.

And the GI50 (BT-549 breast)?
The GI50 was 3.54 µM.

And the TGI (BT-549 breast)?
The TGI was 10.8 µM.

What about the GI50 (M14 melanoma) of the same compound?
Its GI50 is 3.38 µM.

And the TGI (M14 melanoma)?
The TGI was 13.5 µM.

And the GI50 (RXF 393 renal)?
The GI50 was 2440 nM.

What about the TGI (RXF 393 renal) of the same compound?
Its TGI is 8.74 µM.

What about the GI50 (OVCAR-5 ovarian) of the same compound?
The GI50 was 6.2 µM.

And the TGI (OVCAR-5 ovarian)?
The TGI was 20.4 µM.

And the GI50 (HCT-116 colon)?
The GI50 was 900 nM.

And the TGI (HCT-116 colon)?
Its TGI is 2950 nM.

What about the GI50 (NCI-H522 lung) of the same compound?
The GI50 was 1410 nM.

And the TGI (NCI-H522 lung)?
The TGI was 3.02 µM.

And the GI50 (SK-OV-3 ovarian)?
Its GI50 is 4.53 µM.

What about the TGI (SK-OV-3 ovarian) of the same compound?
The TGI was 15.5 µM.

And the GI50 (SK-MEL-5 melanoma)?
The GI50 was 1990 nM.

And the TGI (SK-MEL-5 melanoma)?
Its TGI is 4.41 µM.

What about the GI50 (SF-295 CNS) of the same compound?
The GI50 was 3.76 µM.

What about the TGI (SF-295 CNS) of the same compound?
The TGI was 13.7 µM.

And the GI50 (786-0 renal)?
Its GI50 is 4.71 µM.

What about the TGI (786-0 renal) of the same compound?
The TGI was 16.4 µM.

What about the GI50 (SNB-75 CNS) of the same compound?
The GI50 was 3.27 µM.

And the TGI (SNB-75 CNS)?
The TGI was 15.5 µM.

What about the GI50 (CAKI-1 renal) of the same compound?
Its GI50 is 1910 nM.

And the TGI (CAKI-1 renal)?
The TGI was 3.98 µM.

And the GI50 (HS 578T breast)?
The GI50 was 3.53 µM.

What about the TGI (HS 578T breast) of the same compound?
Its TGI is 24.2 µM.

What about the GI50 (CCRF-CEM leukemia) of the same compound?
Its GI50 is 518 nM.

And the TGI (CCRF-CEM leukemia)?
The TGI was 2590 nM.

What about the GI50 (UO-31 renal) of the same compound?
Its GI50 is 1790 nM.

What about the TGI (UO-31 renal) of the same compound?
The TGI was 3.59 µM.

And the GI50 (SN12C renal)?
Its GI50 is 2000 nM.

And the TGI (SN12C renal)?
The TGI was 5.39 µM.

And the GI50 (HOP-62 NSCLC)?
Its GI50 is 3.38 µM.

What about the TGI (HOP-62 NSCLC) of the same compound?
The TGI was 12.5 µM.

What about the GI50 (OVCAR-4 ovarian) of the same compound?
Its GI50 is 3.6 µM.

And the TGI (OVCAR-4 ovarian)?
The TGI was 18.6 µM.

What about the GI50 (TK-10 renal) of the same compound?
Its GI50 is 1850 nM.

And the TGI (TK-10 renal)?
Its TGI is 3.32 µM.

And the GI50 (RPMI-8226 leukemia)?
Its GI50 is 2300 nM.

What about the TGI (RPMI-8226 leukemia) of the same compound?
Its TGI is 5.68 µM.

What about the GI50 (HCT-15 colon) of the same compound?
Its GI50 is 1170 nM.

What about the TGI (HCT-15 colon) of the same compound?
The TGI was 3.76 µM.

And the GI50 (MDA-MB-435)?
The GI50 was 2890 nM.

And the TGI (MDA-MB-435)?
The TGI was 9.62 µM.
